Experimental data reported in patent publication US12599136B2, “Substituted isophthalic acid diamides and their use as herbicides” (Bayer Aktiengesellschaft, priority 2020, dated 2026).

Experiments:
Type in all cases: in vivo
[1] = tested on: Abutilon theophrasti; experiment: Pre-emergence herbicidal action against ABUTH; conditions: for Pre-emergence action against ABUTH: visual score after 3 weeks vs untreated controls; for Herbicidal action against ABUTH: comparative experiment, pre-emergence
How it was run: (§1)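 Sandy loam pots, seeds covered with soil, then surface-treated with WP or EC formulations at 600–800 l/ha water plus 0.2% wetting agent. Greenhouse, 3 weeks. Percent damage vs untreated controls.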

[2] = tested on: Alopecurus myosuroides; experiment: Pre-emergence herbicidal action against ALOMY; conditions: for Pre-emergence action against ALOMY: visual score after 3 weeks vs untreated controls; for Herbicidal action against ALOMY: comparative experiment, pre-emergence
How it was run: as §1

[3] = tested on: Amaranthus retroflexus; experiment: Pre-emergence herbicidal action against AMARE; conditions: visual score after 3 weeks vs untreated controls
How it was run: as §1

[4] = tested on: Avena fatua; experiment: Pre-emergence herbicidal action against AVEFA; conditions: for Pre-emergence action against AVEFA: visual score after 3 weeks vs untreated controls; for Herbicidal action against AVEFA: comparative experiment, pre-emergence
How it was run: as §1

[5] = tested on: Echinochloa crus-galli; experiment: Pre-emergence herbicidal action against ECHCG; conditions: for Pre-emergence action against ECHCG: 80 g/ha, visual score after 3 weeks vs untreated controls; for Herbicidal action against ECHCG: comparative experiment, pre-emergence
How it was run: as §1

[6] = tested on: Matricaria inodora; experiment: Pre-emergence herbicidal action against MATIN; conditions: visual score after 3 weeks vs untreated controls
How it was run: as §1

[7] = tested on: Digitaria sanguinalis; experiment: Pre-emergence herbicidal action against DIGSA
How it was run: as §1

[8] = tested on: Lolium rigidum; experiment: Pre-emergence herbicidal action against LOLRI; conditions: 80 g/ha
From the text: (§2) Seeds of monocotyledonous and dicotyledonous weed plants and crop plants are laid out in sandy loam soil in wood-fiber pots and covered with soil. The compounds of the invention, formulated in the form of wettable powders (WP) or as emulsion concentrates (EC), are then applied to the surface of the covering soil in the form of an aqueous suspension or emulsion at a water application rate equivalent to 600 to 800 l/ha, with addition of 0.2% wetting agent. After the treatment, the pots are placed in a greenhouse and kept under good growth conditions for the trial plants. The damage to the test plants is scored visually after a test period of 3 weeks by comparison with untreated controls (herbicidal activity in percent (%): 100% activity=the plants have died, 0% activity=like control plants). […] The tables below illustrate, in an illustrative manner, the post-emergence herbicidal action of the compounds of the invention, the herbicidal activity being stated in percent.

[9] = tested on: Polygonum convolvulus; experiment: Pre-emergence herbicidal action against POLCO; conditions: 80 g/ha
How it was run: as §1

[10] = tested on: Setaria viridis; experiment: Pre-emergence herbicidal action against SETVI; conditions: for Pre-emergence action against SETVI: 80 g/ha; for Herbicidal action against SETVI: comparative experiment
How it was run: as §1

[11] = tested on: Veronica persica; experiment: Pre-emergence herbicidal action against VERPE; conditions: 80 g/ha
How it was run: as §1

[12] = tested on: Viola tricolor; experiment: Pre-emergence herbicidal action against VIOTR; conditions: for Pre-emergence action against VIOTR: 80 g/ha
How it was run: as §1

[13] = tested on: Abutilon theophrasti; experiment: Post-emergence herbicidal action against ABUTH
How it was run: (§3)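 Herbicidal action is a visual percentage rating (0% = as untreated control, 100% = plants dead) made roughly 3 weeks after treatment. Plants were grown in sandy loam in the greenhouse and treated at the one-leaf stage, 2 to 3 weeks post-sowing. Treatment was a foliar spray of wettable-powder or emulsion-concentrate formulations at 600 to 800 l/ha water plus 0.2% wetting agent.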

[14] = tested on: Alopecurus myosuroides; experiment: Post-emergence herbicidal action against ALOMY
How it was run: as §3

[15] = tested on: Amaranthus retroflexus; experiment: Post-emergence herbicidal action against AMARE; conditions: visual assessment about 3 weeks after treatment
How it was run: as §3

[16] = tested on: Echinochloa crus-galli; experiment: Post-emergence herbicidal action against ECHCG; conditions: visual assessment about 3 weeks after treatment
How it was run: as §3

[17] = tested on: Matricaria inodora; experiment: Post-emergence herbicidal action against MATIN; conditions: for Post-emergence action against MATIN in %: visual assessment about 3 weeks after treatment
How it was run: as §3

[18] = tested on: Pharbitis purpurea; experiment: Post-emergence herbicidal action against PHBPU; conditions: for Post-emergence action against PHBPU in %: visual assessment about 3 weeks after treatment
How it was run: as §3

[19] = tested on: Digitaria sanguinalis; experiment: Post-emergence herbicidal action against DIGSA
How it was run: as §3

[20] = tested on: Setaria viridis; experiment: Post-emergence herbicidal action against SETVI; conditions: for Post-emergence action against SETVI in %: visual assessment about 3 weeks after treatment
How it was run: as §3

[21] = tested on: Viola tricolor; experiment: Post-emergence herbicidal action against VIOTR
How it was run: as §3

[22] = tested on: Avena fatua; experiment: Post-emergence herbicidal action against AVEFA; conditions: 20 g/ha, visual assessment about 3 weeks after treatment
How it was run: as §3

[23] = tested on: Veronica persica; experiment: Post-emergence herbicidal action against VERPE; conditions: 20 g/ha, visual assessment about 3 weeks after treatment
How it was run: as §3

[24] = tested on: Pharbitis purpurea; experiment: Pre-emergence herbicidal action against PHBPU; conditions: 80 g/ha; visual score after 3 weeks vs untreated controls
From the text: as §2

[25] = comparative experiment, 5 g a.i./ha

CN(C)C(=O)c1c(C(F)F)ccc(C(=O)Nc2nnnn2C)c1Cl [Example 1-154]
100: Herbicidal action against ABUTH ([1]; 20 g a.i./ha) | Herbicidal action against ABUTH ([1]; 80 g a.i./ha) | Herbicidal action against ALOMY ([2]; 80 g a.i./ha) | Herbicidal action against AVEFA ([4]; 80 g a.i./ha) | Herbicidal action against ECHCG ([5]; 80 g a.i./ha) | Herbicidal action against SETVI ([10]; 80 g a.i./ha) | Herbicidal action against VIOTR ([12]; comparative experiment, 80 g a.i./ha) | Herbicidal action against ABUTH [13, 25] | Herbicidal action against SETVI [20, 25] | Herbicidal action against VIOTR [21, 25]
70: Herbicidal action against ALOMY ([2]; 20 g a.i./ha)
90: Herbicidal action against SETVI ([10]; 20 g a.i./ha) | Herbicidal action against ALOMY [14, 25]
80%: Pre-emergence action against AVEFA ([4]; 20 g/ha) | Pre-emergence action against MATIN ([6]; 20 g/ha) | Pre-emergence action against POLCO [9] | Pre-emergence action against VERPE [11] | Post-emergence action against MATIN in % ([17]; 5 g/ha) | Post-emergence action against PHBPU in % ([18]; 5 g/ha)
50: Herbicidal action against AVEFA ([4]; 20 g a.i./ha)
90%: Pre-emergence action against ALOMY ([2]; 20 g/ha) | Pre-emergence action against AMARE ([3]; 20 g/ha) | Pre-emergence action against MATIN ([6]; 80 g/ha) | Pre-emergence action against LOLRI [8] | Post-emergence action against ALOMY ([14]; 5 g/ha) | Post-emergence action against AMARE in % ([15]; 5 g/ha) | Post-emergence action against ECHCG in % ([16]; 5 g/ha) | Post-emergence action against ECHCG in % ([16]; 20 g/ha) | Post-emergence action against MATIN in % ([17]; 20 g/ha) | Post-emergence action against PHBPU in % ([18]; 20 g/ha) | Post-emergence action against DIGSA in % ([19]; 5 g/ha) | Post-emergence action against DIGSA in % ([19]; 20 g/ha)
80: Herbicidal action against ECHCG ([5]; 20 g a.i./ha) | Herbicidal action against MATIN [17, 25] | Herbicidal action against PHBPU [18, 25]
100%: Pre-emergence action against ABUTH ([1]; 80 g/ha) | Pre-emergence action against ALOMY ([2]; 80 g/ha) | Pre-emergence action against AMARE ([3]; 80 g/ha) | Pre-emergence action against AVEFA ([4]; 80 g/ha) | Pre-emergence action against ECHCG [5] | Pre-emergence action against DIGSA ([7]; 20 g/ha) | Pre-emergence action against DIGSA ([7]; 80 g/ha) | Pre-emergence action against SETVI [10] | Pre-emergence action against VIOTR [12] | Post-emergence action against ABUTH ([13]; 5 g/ha) | Post-emergence action against ABUTH ([13]; 20 g/ha) | Post-emergence action against ALOMY ([14]; 20 g/ha) | Post-emergence action against AMARE in % ([15]; 20 g/ha) | Post-emergence action against SETVI in % ([20]; 5 g/ha) | Post-emergence action against SETVI in % ([20]; 20 g/ha) | Post-emergence action against VIOTR in % ([21]; 5 g/ha) | Post-emergence action against VIOTR in % ([21]; 20 g/ha)

CCN(C)C(=O)c1c(C(F)F)ccc(C(=O)Nc2nnnn2C)c1Cl [Example 1-155]
90%: Pre-emergence action against ALOMY ([2]; 80 g/ha) | Pre-emergence action against AVEFA ([4]; 80 g/ha) | Pre-emergence action against MATIN ([6]; 20 g/ha) | Pre-emergence action against VERPE [11] | Post-emergence action against ABUTH ([13]; 5 g/ha) | Post-emergence action against ABUTH ([13]; 20 g/ha) | Post-emergence action against ALOMY ([14]; 20 g/ha) | Post-emergence action against ECHCG in % ([16]; 20 g/ha) | Post-emergence action against MATIN in % ([17]; 20 g/ha) | Post-emergence action against SETVI in % ([20]; 20 g/ha)
80%: Pre-emergence action against LOLRI [8] | Post-emergence action against ALOMY ([14]; 5 g/ha) | Post-emergence action against AVEFA in % [22] | Post-emergence action against PHBPU in % ([18]; 5 g/ha) | Post-emergence action against PHBPU in % ([18]; 20 g/ha) | Post-emergence action against DIGSA in % ([19]; 5 g/ha) | Post-emergence action against DIGSA in % ([19]; 20 g/ha) | Post-emergence action against SETVI in % ([20]; 5 g/ha) | Post-emergence action against VERPE in % [23] | Post-emergence action against VIOTR in % ([21]; 20 g/ha)
100%: Pre-emergence action against ABUTH ([1]; 20 g/ha) | Pre-emergence action against ABUTH ([1]; 80 g/ha) | Pre-emergence action against AMARE ([3]; 20 g/ha) | Pre-emergence action against AMARE ([3]; 80 g/ha) | Pre-emergence action against ECHCG [5] | Pre-emergence action against MATIN ([6]; 80 g/ha) | Pre-emergence action against SETVI [10] | Pre-emergence action against VIOTR [12] | Post-emergence action against AMARE in % ([15]; 5 g/ha) | Post-emergence action against AMARE in % ([15]; 20 g/ha)

CCN(CC)C(=O)c1c(Br)ccc(C(=O)Nc2nnnn2C)c1Cl [Example 1-200]
80%: Pre-emergence action against PHBPU [24] | Post-emergence action against ABUTH ([13]; 5 g/ha) | Post-emergence action against SETVI in % ([20]; 5 g/ha) | Post-emergence action against VIOTR in % ([21]; 5 g/ha) | Post-emergence action against VIOTR in % ([21]; 20 g/ha)
90%: Pre-emergence action against ABUTH ([1]; 20 g/ha) | Pre-emergence action against AMARE ([3]; 20 g/ha) | Post-emergence action against ABUTH ([13]; 20 g/ha) | Post-emergence action against PHBPU in % ([18]; 20 g/ha) | Post-emergence action against SETVI in % ([20]; 20 g/ha) | Post-emergence action against VERPE in % [23]
100%: Pre-emergence action against ABUTH ([1]; 80 g/ha) | Pre-emergence action against ALOMY ([2]; 80 g/ha) | Pre-emergence action against AMARE ([3]; 80 g/ha) | Pre-emergence action against MATIN ([6]; 80 g/ha) | Pre-emergence action against SETVI [10] | Pre-emergence action against VERPE [11] | Pre-emergence action against VIOTR [12] | Post-emergence action against AMARE in % ([15]; 5 g/ha) | Post-emergence action against AMARE in % ([15]; 20 g/ha) | Post-emergence action against ECHCG in % ([16]; 20 g/ha)

CCN(C)C(=O)c1c(C(F)F)ccc(C(=O)Nc2nnnn2CC)c1Cl [Example 2-155]
80%: Pre-emergence action against MATIN ([6]; 20 g/ha) | Post-emergence action against ABUTH ([13]; 5 g/ha) | Post-emergence action against MATIN in % ([17]; 5 g/ha) | Post-emergence action against PHBPU in % ([18]; 5 g/ha) | Post-emergence action against PHBPU in % ([18]; 20 g/ha) | Post-emergence action against DIGSA in % ([19]; 5 g/ha) | Post-emergence action against DIGSA in % ([19]; 20 g/ha) | Post-emergence action against SETVI in % ([20]; 5 g/ha) | Post-emergence action against VIOTR in % ([21]; 20 g/ha)
100%: Pre-emergence action against ABUTH ([1]; 20 g/ha) | Pre-emergence action against ABUTH ([1]; 80 g/ha) | Pre-emergence action against AMARE ([3]; 20 g/ha) | Pre-emergence action against AMARE ([3]; 80 g/ha) | Pre-emergence action against ECHCG [5] | Pre-emergence action against MATIN ([6]; 80 g/ha) | Pre-emergence action against SETVI [10] | Pre-emergence action against VIOTR [12] | Post-emergence action against AMARE in % ([15]; 5 g/ha) | Post-emergence action against AMARE in % ([15]; 20 g/ha) | Post-emergence action against SETVI in % ([20]; 20 g/ha)
90%: Pre-emergence action against ALOMY ([2]; 80 g/ha) | Pre-emergence action against AVEFA ([4]; 80 g/ha) | Pre-emergence action against LOLRI [8] | Pre-emergence action against VERPE [11] | Post-emergence action against ABUTH ([13]; 20 g/ha) | Post-emergence action against ALOMY ([14]; 20 g/ha) | Post-emergence action against MATIN in % ([17]; 20 g/ha)
